This note sets out measurements from ChEMBL document CHEMBL1201862, “PubChem BioAssay data set” (2004).

Counter-ions that a name gives are not always drawn. Calls of active or inactive are those of the source.

Test [1] deals with G-protein coupled receptor 183 (Homo sapiens, UniProt P32249). Briefly: SAR confirmation of small molecule antagonists of the EBI2 receptor via a luminescent beta-arrestin assa. Format: functional.
Test [2] is described as follows: viability loss in Vero cells – cytotoxicity control for Vif-APOBEC3G degradation inhibitor project, dose response (AID 1117358). The format is functional. Conditions: Vero.
The nature of test [3]: growth inhibition of PfATP4-mutant resistant parasites – NITD609-resistant line, SYBR Green, dry powder, dose response (AID 1159571).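 Further: parasites synchronized at ring stage by sorbitol before testing.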 The format is functional, cell-based.
Test [4] is described as follows: growth inhibition of yeast DHODH-expressing 3D7 parasites – SYBR Green, dry powder samples, dose response (AID 1159570).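 Further: parasite growth measured after 72 hours of compound exposure.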 Format: functional, cell-based.
A short description of test [5]: Dd2 malaria parasite growth inhibition potency – SYBR Green, dry powder samples, dose response (AID 1159566).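 Further: potency for growth inhibition with lower SYBR green DNA signal.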 The format is functional, cell-based.
Test [6] is described as follows: P. falciparum Dd2 growth inhibitors, dose response, SYBR Green, cherry-picked samples (AID 1159567). Format: functional, cell-based.
A short description of test [7]: viability loss in HeLa cells – cytotoxicity control for MgcRacGAP inhibitor project, dose response (AID 624300). Format: functional.
The nature of test [8]: viability loss in THP-1 monocytes – THP-1 cells, cytotoxicity control for Vif-APOBEC3G degradation inhibitor project, dose response (AID 1117359). The format is functional. Conditions: THP-1.
The target in another test is T1, Protein skinhead-1 (Caenorhabditis elegans, UniProt P34707).
T1 sequence (P34707 whole entry): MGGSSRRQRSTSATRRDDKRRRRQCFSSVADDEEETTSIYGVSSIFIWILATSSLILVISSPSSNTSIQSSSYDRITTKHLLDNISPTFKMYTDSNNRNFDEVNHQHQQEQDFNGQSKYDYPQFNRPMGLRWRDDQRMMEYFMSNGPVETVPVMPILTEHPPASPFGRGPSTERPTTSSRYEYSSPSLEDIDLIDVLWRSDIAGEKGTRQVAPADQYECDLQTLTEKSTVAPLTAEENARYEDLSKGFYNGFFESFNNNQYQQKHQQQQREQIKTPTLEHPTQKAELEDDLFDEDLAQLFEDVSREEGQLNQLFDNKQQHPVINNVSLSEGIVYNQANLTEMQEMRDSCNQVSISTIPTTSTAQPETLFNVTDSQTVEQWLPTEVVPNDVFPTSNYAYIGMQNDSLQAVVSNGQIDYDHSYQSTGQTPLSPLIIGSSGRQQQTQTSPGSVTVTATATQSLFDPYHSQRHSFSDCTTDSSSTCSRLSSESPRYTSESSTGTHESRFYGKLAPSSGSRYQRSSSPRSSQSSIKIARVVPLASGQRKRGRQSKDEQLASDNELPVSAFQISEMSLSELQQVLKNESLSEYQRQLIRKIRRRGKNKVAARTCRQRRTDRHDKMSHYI
The format is functional.

Test [9] has as its target T2, Rac GTPase-activating protein 1 (Homo sapiens, UniProt Q9H0H5).
T2 sequence (Q9H0H5 whole entry): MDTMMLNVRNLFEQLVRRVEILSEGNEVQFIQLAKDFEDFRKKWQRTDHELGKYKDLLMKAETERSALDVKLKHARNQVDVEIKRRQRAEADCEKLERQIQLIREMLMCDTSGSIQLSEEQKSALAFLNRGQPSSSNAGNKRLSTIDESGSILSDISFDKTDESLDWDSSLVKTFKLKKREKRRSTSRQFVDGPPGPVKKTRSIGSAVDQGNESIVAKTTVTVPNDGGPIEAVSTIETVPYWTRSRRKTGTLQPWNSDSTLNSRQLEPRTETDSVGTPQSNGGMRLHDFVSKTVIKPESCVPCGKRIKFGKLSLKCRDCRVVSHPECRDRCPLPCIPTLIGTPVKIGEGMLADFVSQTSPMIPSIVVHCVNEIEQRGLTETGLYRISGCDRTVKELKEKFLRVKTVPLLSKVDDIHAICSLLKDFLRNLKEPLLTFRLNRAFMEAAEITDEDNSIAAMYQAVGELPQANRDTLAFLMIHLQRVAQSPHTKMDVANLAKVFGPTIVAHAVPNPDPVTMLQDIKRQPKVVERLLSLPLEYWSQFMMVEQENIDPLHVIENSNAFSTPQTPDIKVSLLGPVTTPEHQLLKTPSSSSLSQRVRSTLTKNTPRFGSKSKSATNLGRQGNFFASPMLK
Description: blockers of MgcRacGAP-driven Rac1 GTP hydrolysis – biochemical, ADP Hunter fluorescence, primary and confirmatory, confirmation (AID 624330). The format is functional.

The target in another test is Protein Tat (Human immunodeficiency virus type 1 group M subtype B (isolate HXB2)(HIV-1), UniProt P04608). The format is functional.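 Further: tat binding to TAR RNA read out by fluorescence polarization.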
Sequence of Protein Tat (P04608 whole entry): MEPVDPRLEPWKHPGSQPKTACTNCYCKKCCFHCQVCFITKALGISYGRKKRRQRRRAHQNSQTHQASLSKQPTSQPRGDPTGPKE
A further test has as its target Nonstructural protein 1 (Influenza A virus, UniProt Q194T2). The format is functional, Influenza A virus (A/California/07/2009(H1N1)).
For test [10], the target named is Glutathione-S-transferase (Schistosoma japonicum, UniProt Q26513). Description: GST-antibody interaction or FRET quenching – biochemical, TR-FRET, artefact control for Vif-APOBEC3G degradation inhibitor project, dose response (AID 1117362). The format is functional. On the technique in general: In TR-FRET formats the signal depends on donor and acceptor labels being close together.
Sequence of Glutathione-S-transferase (Q26513 whole entry): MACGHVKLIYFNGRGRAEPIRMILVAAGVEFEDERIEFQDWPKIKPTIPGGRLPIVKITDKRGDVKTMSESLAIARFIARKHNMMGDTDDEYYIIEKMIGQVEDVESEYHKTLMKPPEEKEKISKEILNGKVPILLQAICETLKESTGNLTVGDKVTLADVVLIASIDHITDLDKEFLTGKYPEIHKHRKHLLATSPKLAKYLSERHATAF

Test [11] can be described thus: IC50 of insulin release inhibition, rat insulinoma INS-1E line, 5 mM glucose, cell-based (AID 1117331). The format is functional.
Test [12] is described as follows: Potency on glucagon-like peptide 1 release, dose-response in NCI-H716 cell line, half maximal inhibitory concentration (AID 1117344). Format: functional, cell-based.
Test [13] is described as follows: glucagon-like peptide-1 release potency in STC-1, concentration-response, half-maximal inhibitory concentration in the STC-1 line (AID 1117345). The format is functional, cell-based.
The target in test [14] is SWI/SNF-related matrix-associated actin-dependent regulator of chromatin subfamily A member 2 (Homo sapiens, UniProt P51531). Description: Luminescence-based cell-based high throughput dose response assay to identify activators of the function of SWI/SNF related, matrix associated, actin dependent regulator of chromatin, subfamily a, member 2 (SMARCA2, BRM). The format is functional.
Sequence of SWI/SNF-related matrix-associated actin-dependent regulator of chromatin subfamily A member 2 (P51531 whole entry): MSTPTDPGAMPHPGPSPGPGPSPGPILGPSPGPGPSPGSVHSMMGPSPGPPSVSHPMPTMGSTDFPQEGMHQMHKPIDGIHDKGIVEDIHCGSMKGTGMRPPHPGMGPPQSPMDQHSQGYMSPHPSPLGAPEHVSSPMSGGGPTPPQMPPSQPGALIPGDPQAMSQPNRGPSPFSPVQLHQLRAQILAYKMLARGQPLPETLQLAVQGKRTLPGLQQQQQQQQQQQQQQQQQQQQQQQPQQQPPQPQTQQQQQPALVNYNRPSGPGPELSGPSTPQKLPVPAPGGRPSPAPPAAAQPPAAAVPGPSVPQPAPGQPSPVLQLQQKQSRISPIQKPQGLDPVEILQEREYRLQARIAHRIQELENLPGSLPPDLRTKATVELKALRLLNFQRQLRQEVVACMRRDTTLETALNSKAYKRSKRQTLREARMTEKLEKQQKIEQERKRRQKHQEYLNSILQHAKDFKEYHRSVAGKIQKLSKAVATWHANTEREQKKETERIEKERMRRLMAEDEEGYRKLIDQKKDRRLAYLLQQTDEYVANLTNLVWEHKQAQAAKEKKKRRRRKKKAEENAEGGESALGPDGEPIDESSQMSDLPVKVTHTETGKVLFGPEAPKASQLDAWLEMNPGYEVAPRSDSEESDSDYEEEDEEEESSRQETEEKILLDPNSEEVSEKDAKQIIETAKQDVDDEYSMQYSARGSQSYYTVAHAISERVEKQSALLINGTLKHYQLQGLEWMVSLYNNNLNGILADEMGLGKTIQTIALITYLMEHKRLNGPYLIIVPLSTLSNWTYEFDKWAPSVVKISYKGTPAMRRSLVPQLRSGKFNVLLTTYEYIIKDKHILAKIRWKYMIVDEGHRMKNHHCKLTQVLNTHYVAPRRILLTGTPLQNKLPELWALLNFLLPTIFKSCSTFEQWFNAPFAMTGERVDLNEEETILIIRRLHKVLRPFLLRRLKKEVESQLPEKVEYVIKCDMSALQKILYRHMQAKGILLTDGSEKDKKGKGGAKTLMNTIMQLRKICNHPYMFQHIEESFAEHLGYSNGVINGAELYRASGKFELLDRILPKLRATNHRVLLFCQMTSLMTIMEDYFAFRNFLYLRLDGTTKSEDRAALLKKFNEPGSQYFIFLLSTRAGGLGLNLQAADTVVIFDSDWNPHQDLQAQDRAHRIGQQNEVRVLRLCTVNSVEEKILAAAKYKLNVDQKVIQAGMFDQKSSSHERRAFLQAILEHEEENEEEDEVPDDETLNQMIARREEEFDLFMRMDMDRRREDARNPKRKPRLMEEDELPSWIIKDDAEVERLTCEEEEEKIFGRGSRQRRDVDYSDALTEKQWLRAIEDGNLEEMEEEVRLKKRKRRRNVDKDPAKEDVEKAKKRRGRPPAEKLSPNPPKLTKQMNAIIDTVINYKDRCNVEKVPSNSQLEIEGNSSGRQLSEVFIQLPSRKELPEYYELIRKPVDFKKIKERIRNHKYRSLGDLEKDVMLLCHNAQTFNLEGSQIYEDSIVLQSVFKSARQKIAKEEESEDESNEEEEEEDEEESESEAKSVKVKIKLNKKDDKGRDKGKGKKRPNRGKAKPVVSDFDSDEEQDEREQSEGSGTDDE

A short description of test [15]: Counterscreen for activators of the function of SWI/SNF related, matrix associated, actin dependent regulator of chromatin, subfamily a, member 2 (SMARCA2, BRM): Luminescence-based cell-based high throughput dose response assay to identify non-selective compounds using the VP16 reporter assay. The format is functional. (A counterscreen serves to expose hits that act by an unwanted route or on another target.)

Test [16] concerns the target E3 ubiquitin-protein ligase UHRF1 (Homo sapiens, UniProt Q96T88). Briefly: Counterscreen for inhibitors of 5-meCpG-binding domain protein 2 (MBD2): TRFRET-based biochemical high throughput dose response assay to identify inhibitors of binding of ubiquitin-like with PHD and ring finger domains 1 (UHRF1) to methylated oligonucleotide.
Test [17] concerns HEK293. Briefly: cells. As to conditions: Homo sapiens.
Test [18] has as its system HEK293. Description: cells. As to conditions: Homo sapiens. The source holds these as a separate data set.
The target of another test is Paired box protein Pax-8 (Homo sapiens, UniProt Q06710). Description: PAX8 transcriptional activity inhibition in RMG-I – RMG-I cells, luciferase, cherry-pick, dose response (AID 687027).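 Further: luciferase reporter driven by Pax8 target thyroperoxidase promoter measured by SteadyGlo luminescence.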 Format: functional, cell-based.
Sequence of Paired box protein Pax-8 (Q06710 whole entry): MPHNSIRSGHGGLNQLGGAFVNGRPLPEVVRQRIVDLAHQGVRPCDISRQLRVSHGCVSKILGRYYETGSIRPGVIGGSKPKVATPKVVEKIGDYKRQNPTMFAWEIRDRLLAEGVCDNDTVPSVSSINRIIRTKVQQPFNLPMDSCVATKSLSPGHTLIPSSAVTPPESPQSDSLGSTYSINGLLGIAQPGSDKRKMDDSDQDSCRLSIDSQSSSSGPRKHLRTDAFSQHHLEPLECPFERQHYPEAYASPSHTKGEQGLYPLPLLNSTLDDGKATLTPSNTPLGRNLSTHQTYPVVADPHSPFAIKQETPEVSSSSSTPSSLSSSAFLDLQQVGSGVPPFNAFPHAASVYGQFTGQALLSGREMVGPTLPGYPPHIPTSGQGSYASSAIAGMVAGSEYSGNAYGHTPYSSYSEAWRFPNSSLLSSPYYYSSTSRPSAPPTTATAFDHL
Test [19] addresses Dual specificity tyrosine-phosphorylation-regulated kinase 1A (Rattus norvegicus, UniProt Q63470). The format is biochemical, Homo sapiens.
Test [20] in a line: HIV-1 Vif–A3G interaction blockers – biochemical, TR-FRET, GST-Vif 1-94, biotin-A3G peptide, dose response retest, primary screen (AID 1117319).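 Further: TR-FRET signal of purified GST-Vif binding a biotinylated A3G peptide; inhibitors lower the FRET signal by blocking Vif and A3G binding.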 The format is functional.

Sequence of E3 ubiquitin-protein ligase UHRF1 (Q96T88 whole entry, the tested form may be a part): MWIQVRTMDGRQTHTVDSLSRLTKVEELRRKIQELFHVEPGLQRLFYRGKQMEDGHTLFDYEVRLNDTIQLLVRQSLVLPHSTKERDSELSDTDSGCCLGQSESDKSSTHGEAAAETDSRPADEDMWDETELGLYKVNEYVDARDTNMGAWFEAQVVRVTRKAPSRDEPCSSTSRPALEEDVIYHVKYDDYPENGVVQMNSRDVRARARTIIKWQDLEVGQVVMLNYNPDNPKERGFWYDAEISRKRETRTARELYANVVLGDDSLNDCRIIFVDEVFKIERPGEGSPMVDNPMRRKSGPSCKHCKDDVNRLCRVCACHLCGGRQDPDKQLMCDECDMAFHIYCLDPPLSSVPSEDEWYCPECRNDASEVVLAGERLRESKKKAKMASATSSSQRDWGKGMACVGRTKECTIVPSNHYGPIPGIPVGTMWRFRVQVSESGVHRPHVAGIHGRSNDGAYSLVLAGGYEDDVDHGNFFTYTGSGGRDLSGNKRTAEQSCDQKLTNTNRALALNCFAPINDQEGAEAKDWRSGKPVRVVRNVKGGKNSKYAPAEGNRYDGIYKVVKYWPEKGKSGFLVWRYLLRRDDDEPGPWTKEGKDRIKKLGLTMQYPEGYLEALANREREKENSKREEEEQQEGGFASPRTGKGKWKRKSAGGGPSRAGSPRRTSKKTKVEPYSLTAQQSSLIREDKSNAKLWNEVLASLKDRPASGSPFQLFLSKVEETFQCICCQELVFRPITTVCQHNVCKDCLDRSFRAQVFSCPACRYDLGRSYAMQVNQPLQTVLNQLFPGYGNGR
Sequence of G-protein coupled receptor 183 (P32249 whole entry): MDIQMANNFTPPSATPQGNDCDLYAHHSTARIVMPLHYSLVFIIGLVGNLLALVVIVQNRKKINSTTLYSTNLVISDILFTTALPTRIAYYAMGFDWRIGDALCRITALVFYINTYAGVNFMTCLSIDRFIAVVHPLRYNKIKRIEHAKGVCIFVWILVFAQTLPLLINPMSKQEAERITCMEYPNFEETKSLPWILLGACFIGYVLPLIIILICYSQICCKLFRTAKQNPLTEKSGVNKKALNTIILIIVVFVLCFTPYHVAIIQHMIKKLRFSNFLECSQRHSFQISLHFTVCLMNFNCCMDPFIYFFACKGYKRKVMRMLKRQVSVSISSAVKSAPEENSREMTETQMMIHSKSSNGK
Sequence of Nonstructural protein 1 (Q194T2 whole entry): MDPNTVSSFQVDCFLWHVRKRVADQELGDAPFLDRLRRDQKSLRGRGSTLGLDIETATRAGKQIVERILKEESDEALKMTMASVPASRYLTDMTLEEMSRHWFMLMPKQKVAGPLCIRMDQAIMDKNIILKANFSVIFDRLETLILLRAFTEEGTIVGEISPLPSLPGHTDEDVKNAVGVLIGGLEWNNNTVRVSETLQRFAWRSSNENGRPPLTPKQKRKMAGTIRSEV

In the case of `O=C(/C=C/c1ccc(Br)cc1)N1CCN(C(=O)c2cccc(B(O)O)c2)CC1`, the IC50 (in general, the concentration needed to halve the response being measured) in test [1] was 0.0287 µM (active).

Turning to `O=C(Nc1cccc(C(F)(F)F)c1)c1cccnc1NCCc1ccccc1`, the CC50 (as a rule, the concentration at which the toxic effect on the cells reaches its halfway point) in test [2] was > 40 µM (active).

In the case of `COc1cccc(S(=O)(=O)N2CCN(C(=O)/C=C/c3ccc(F)cc3)CC2)c1`, the IC50 in test [1] was 0.0521 µM (active).

As to `COc1ccc2c3c([nH]c2c1)[C@H](CO)N(C(=O)C1CCOCC1)CC31CCN(Cc2nccs2)CC1`, the AC50 (as a rule, the concentration giving half of the maximal activity seen) is 0.384 µM (active) in test [3], 0.387 µM (active) in test [4], 0.467 µM (active) in test [5] and 2.43 µM (active) in [6].

With `N=C1C=CC(=C(c2ccc(N)cc2)c2ccc(N)cc2)C=C1` [PARAROSANILINE], the values for the CC50 in test [7] and in [8] were 50.3 µM (active) and 7.58 µM (active), respectively. The IC50 at Protein skinhead-1 was 13.4 µM (active); in [9], 98 µM (active); on Protein Tat, > 100 µM (active); at Nonstructural protein 1, 6.87 µM (active); in test [10], 4.08 µM (active).

Take `CC1CCCC(/C=N/c2ccc(O)cc2)=C1O` (centres undefined): the IC50 in [9] was 26.9 µM (active); on Protein Tat, 30.8 µM (inconclusive).

As to `COc1ccc(Cl)cc1C(=O)NCCc1ccc(S(=O)(=O)NC(=O)NC2CCCCC2)cc1` [GLYBURIDE], in test [11], the IC50 is 0.00808 µM (active).

Take `CCOC(=O)c1ccccc1O` [ETHYL SALICYLATE]: the figures for the IC50 in [12], in test [13] and in [11] were > 40 µM (inactive), > 40 µM (inactive) and > 33.3 µM (inactive), respectively.

With `Clc1ccc2c(c1)-c1ccccc1C1=NCCN12`, the concentration giving a half-maximal response (EC50) – broadly, the concentration giving half of the maximal effect – in [14] was 4.65 µM (active); in test [15], > 91.3 µM (inactive); with HEK293 [17], > 59.5 µM (inactive); with HEK293 [18], > 59.5 µM (inactive). The IC50 in [16] is > 43.8 µM (inactive).

On to `CN(C)CCNc1ccc(CO)c2sc3ccc(O)cc3c(=O)c12`, for which the AC50 is 5.72 µM (active) on Paired box protein Pax-8 and 1.82 µM (active) in test [19]. Further, the CC50 in [7] was 36.1 µM (active). The values for the IC50 in test [9] and in test [16] were 20.2 µM (active) and > 43.8 µM (inactive), respectively.

For `COc1cc2nc(N3CCN(C(=O)C4COc5ccccc5O4)CC3)nc(N)c2cc1OC` (centres undefined) [DOXAZOSIN MESYLATE], the IC50 is > 40 µM (inactive) in test [12] and 10.7 µM (inactive) in test [13].

Regarding `CC(C)N1CCC2(CC1)C(C#N)=C(N)NC(S)=C2C#N`, the IC50 in test [20] is > 100 µM (active). The CC50 in test [2] was > 40 µM (active).
